For assay [1], the system named is pLNCX2-B16 cells. Put plainly: growth of pLNCX2-B16 cells under low serum conditions in vitro. The note with it: for cell count pLNCX2-B16 24 h / cell count pLNCX2-B16 48 h: low serum (0.5% FCS); for effect on growth of pLNCX2-B16 cells: under either low or high serum conditions. Format: cell-based, murine. How it is done: (§1) CXCR4- and pLNCX2-B16 cells (2×10^4 cells/well) were cultured in triplicate for 24 hr in 24-well plates containing B16 growth medium (DMEM, 10% FCS). After rinsing the cells in serum-free DMEM, the B16 cells were incubated for 40 hr at 37° C. in DMEM containing low serum (0.5% FCS). At this point, CXCL12 (500 ng/ml) was added to the cells by itself or with either T22 or control ALA peptide at 1 μg/ml for the indicated times. Cells were then harvested at 24 or 48 hr later and counted by a hemacytometer.

Assay [2] has as its system activated bone-marrow-derived dendritic cells. Briefly: in vitro chemotaxis of dendritic cells to CXCL12. It is filed as cell-based. The following applies: T22 500 ng/ml; 200 ng/ml of CXCL12.
In assay [3] the test system is CXCR4-B16 cells. Put plainly: growth of CXCR4-B16 cells under low serum conditions in vitro. Format: cell-based, murine. The following applies: for effect of peptide alone on growth: T22 or ALA alone; for cell count CXCR4-B16 24 h / cell count CXCR4-B16 48 h: low serum (0.5% FCS); for block of growth stimulated by CXCL12: low serum, in the presence of CXCL12. The procedure:
as §1

Assay [4] deals with CXCR4-B16 cells. Briefly: pulmonary metastasis after i.v. injection of CXCR4-B16 cells (lung luciferase assay). It is filed as in vivo, mice. The note with it: for effect on pulmonary metastasis: CXCR4-B16-injected mice; for effect on pulmonary metastasis / Average weight: 4 μg peptide i.p. daily; for Luciferase activity (RLU): lung, 4 μg peptide/mouse i.p. daily; for Luciferase activity (RLU) / Average weight: CXCR4-B16 cells i.v.; for Average weight: mass of the lungs; for Average Relative Luciferase Units: CXCR4-B16 i.v., 14-day assay. How it is done:
(§2) Luciferase activity was measured using a Luciferase Reporter assay system (Promega, Madison, Wis.). Cultured cells were lysed with 100 μl of undiluted lysis buffer and then assayed in the presence of luciferin using a Thermo Labsystems MLX 96-well luminometer (Helsinki, Finland). Units are in arbitrary light units. For tissue assays, organs from each animal were homogenized in 1 ml of lysis buffer, of which 25 μl aliquots were then assayed in duplicate. Means of duplicates were used to represent the luciferase activity for a given tissue from a particular animal. Five to ten animals per experimental treatment group were used for typical experiments.
(§3) CXCR4- and pLNCX2-B16 cells in exponential growth phase were harvested by trypsinization and washed twice in PBS prior to injection. Cell viability was >95% as determined by trypan blue dye exclusion. For the footpad (i.e., subcutaneous) injection, B16 cells (4×10^5 cells in 20 μl PBS) were subcutaneously injected into the left footpads of C57BL/6 mice. Tumor growth was monitored three times per week by measurement of two maximum perpendicular tumor diameters. When tumors reached 5-7 mm in size, animals were euthanized prior to harvesting of lung and LN. Popliteal LN were removed by gently pulling skin (including the dermis and subcutaneous fat) above the popliteal fossa and carefully exposing the LN resting in the adipose tissue of the fossa with a pair of forceps. For intravenous injection, 4×10^5 CXCR4- or pLNCX2-B16 cells in 200 μl were injected into the tail veins of mice. T22 and ALA peptides in sterile PBS were administered via an intraperitoneal (i.p.) route using 4 μg peptide/mouse daily for the indicated duration of treatment. Experiments were performed 2-4 times each with similar trends.
To determine whether T22 would inhibit the CXCR4-mediated increase in metastasis, mice were injected intravenously with CXCR4-B16 and pLNCX2-B16 cells. Subgroups of CXCR4-B16 mice were treated daily with 4 μg of either T22 or ALA control peptide. CXCR4-B16 cells accumulated in greater numbers in the lung compared to pLNCX2-B16 cells (Table 4), confirming the results described in Example 2.
It has been shown that the CXCR4 inhibitory peptide, T22, blocked pulmonary metastasis of CXCR4-B16 cells when this CXCR4 inhibitor was used daily throughout the course of the 14-day metastastis assay (Murakami et al., Cancer Res. 62:7328-7334 (2002)). To determine if short-term treatment with T22 was also effective in blocking metastasis, the in vivo assay described in Murakami et al., Cancer Res. 62:7328-7334 (2002), was modified and the drug was only given for the first two days of the 14-day waiting period following i.v. injection of CXCR4-B16 and pLNCX2-B16 cells. In one group of animals, the CXCR4 antagonist peptide T22 was administered intraperitoneally (i.p.) shortly after tumor inoculation and again 24 hours later. In another group of CXCR4-B16-injected mice, T22 was given daily for 14 days.
To determine whether T22 treatment during the last 7 days of the metastasis assay could reduce tumor burden, T22 was given daily either during the entire 2-week treatment period or for just the second week (Table 9).
CXCR4-B16 and pLNCX2-B16 cells in exponential growth phase were harvested by trypsinization and washed twice in PBS before injection. Cell viability was >95% as determined by trypan blue dye exclusion. CXCR4-B16 or pLNCX2-B16 cells (4×10^5 in 200 μl PBS) were then injected into the tail veins of mice. T22 and ALA peptides in sterile PBS were administered via an i.p. route using 4 μg peptide/mouse daily for the indicated duration of treatment as described (Murakami et al., Cancer Res. 62:7328-7334 (2002)). Mice were euthanized after 14 days for gross inspection of lungs and luciferase quantification of metastasis by luciferase activity (Murakami et al., Cancer Res. 62:7328-7334 (2002)). […]

Assay [5] has as its system pLNCX2-B16 cells. Briefly: pulmonary metastasis after i.v. injection of pLNCX2-B16 cells (lung luciferase assay). Format: in vivo. The following applies: pLNCX2-B16-injected mice. How it is done:
as §2
CXCR4- and pLNCX2-B16 cells in exponential growth phase were harvested by trypsinization and washed twice in PBS prior to injection. Cell viability was >95% as determined by trypan blue dye exclusion. […] Tumor growth was monitored three times per week by measurement of two maximum perpendicular tumor diameters. […]
CXCR4-B16 and pLNCX2-B16 cells in exponential growth phase were harvested by trypsinization and washed twice in PBS before injection. Cell viability was >95% as determined by trypan blue dye exclusion. […] Mice were euthanized after 14 days for gross inspection of lungs and luciferase quantification of metastasis by luciferase activity (Murakami et al., Cancer Res. 62:7328-7334 (2002)). […]

For assay [6], the system named is CXCR4-B16 cells. Put plainly: growth of CXCR4-B16 cells injected into the footpad. Format: in vivo, mice. The note with it: compared to either PBS or ALA. The procedure:
as §3

[7] abbreviates: peptide 1 μg/ml together with SDF-1 (CXCL12 500 ng/ml).
Setting [8] is: treatment alone, CXCL12 500 ng/ml, peptide 1 μg/ml.

Consider “H-KWAFRVAYRGIAYRRAR-OH [ALA, reference compound]”, for which, in the assay on pLNCX2-B16 cells [1] (setting [7]), the “cell count pLNCX2-B16 24 h” value is 10.7 ± 2.9 and the “cell count pLNCX2-B16 48 h” value came out at 22.7 ± 3.2. Besides, in the assay on pLNCX2-B16 cells [1] (setting [8]), the “cell count pLNCX2-B16 24 h” value was determined as 10.0 ± 1.0 and the “cell count pLNCX2-B16 48 h” value worked out at 20.3 ± 3.5. Besides, the “effect on growth of pLNCX2-B16 cells” value with pLNCX2-B16 cells [1] is listed as “did not affect the growth”. Further, in assay [2], the “block of in vitro chemotaxis to CXCL12” value is reported as “no inhibitory effect”. Moreover, in the assay with CXCR4-B16 cells [3], the “effect of peptide alone on growth” value is “did not significantly alter growth” and the “block of growth stimulated by CXCL12” value is “but not by the control peptide”. Besides, in the assay on CXCR4-B16 cells [3] (setting [7]), the “cell count CXCR4-B16 24 h” value came to 16.0 ± 1.0 and the “cell count CXCR4-B16 48 h” value came to 33.3 ± 6.7. Besides, in the assay on CXCR4-B16 cells [3] (setting [8]), the “cell count CXCR4-B16 24 h” value is on record as 12.0 ± 0.1 and the “cell count CXCR4-B16 48 h” value amounted to 22.3 ± 1.2. In the assay with CXCR4-B16 cells [4], the “effect on pulmonary metastasis” value was “no effect”, the “Luciferase activity (RLU)” value came to 43928 ± 29729 RLU and the “Average weight” value was determined as 0.88 g.
Take “NH2-RRWCYRKCYKGYCYRKCR-COOH (H-RRWCYRKCYKGYCYRKCR-OH; cysteine pairing not given here) [T22]”: in the assay with pLNCX2-B16 cells [1] (setting [7]), the “cell count pLNCX2-B16 24 h” value came out at 12.3 ± 0.6 and the “cell count pLNCX2-B16 48 h” value is 21.7 ± 3.2. For the same substance, in the assay with pLNCX2-B16 cells [1] (setting [8]), the “cell count pLNCX2-B16 24 h” value is reported as 10.7 ± 1.2 and the “cell count pLNCX2-B16 48 h” value is 21.0 ± 1.0. The “effect on growth of pLNCX2-B16 cells” value in the assay with pLNCX2-B16 cells [1] is on record as “did not affect the growth”. Besides, the “effect on metastasis” value in the assay with pLNCX2-B16 cells [5] is “did not block metastasis”. Further, in assay [2], the “block of in vitro chemotaxis to CXCL12” value is “block specifically”. In addition, in the assay on CXCR4-B16 cells [3], the “effect of peptide alone on growth” value is given as “did not significantly alter growth” and the “block of growth stimulated by CXCL12” value is “could be blocked”. In addition, in the assay on CXCR4-B16 cells [3] (setting [7]), the “cell count CXCR4-B16 24 h” value came out at 12.7 ± 2.1 and the “cell count CXCR4-B16 48 h” value turned out to be 20.7 ± 3.0. Also, in the assay on CXCR4-B16 cells [3] (setting [8]), the “cell count CXCR4-B16 24 h” value turned out to be 11.0 ± 1.0 and the “cell count CXCR4-B16 48 h” value is given as 22.0 ± 1.0. Besides, the “effect on growth of cells injected into the footpad” value with CXCR4-B16 cells [6] was “no significant effect on the growth”. Besides, in the assay with CXCR4-B16 cells [4], the “effect on pulmonary metastasis” value is reported as “reduced metastasis to levels seen in pLNCX2-B16 injected mice”, the “Luciferase activity (RLU)” value is recorded as 1114 ± 956 RLU and the “Average weight” value was determined as 0.55 g. In addition, the “Average Relative Luciferase Units” value with CXCR4-B16 cells [4] (T22 daily 2nd week only) was determined as 81981.2 Relative Luciferase Units. The “Average Relative Luciferase Units” value in the assay on CXCR4-B16 cells [4] (T22 daily for 2 weeks) is reported as 15294.5 Relative Luciferase Units. The “protection against CXCR4-mediated pulmonary metastasis” value in the assay with CXCR4-B16 cells [4] (T22 i.p. for the first two days of the 14-day assay) was “as effective as giving T22 daily for the entire 2-week course”. In addition, the “metastatic burden” value in the assay with CXCR4-B16 cells [4] (T22 treatment during the second week only) is on record as “same metastatic burden as PBS (mock) treatment”.
